Measurements from patent US8518945B2, “Pyrrolopyrazine kinase inhibitors” (Hoffmann-La Roche Inc., priority 2010, dated 2013).

system: not given; assay: not given; conditions: not given

Row | Compound | melting point [°C]
1 | Cc1nc(-c2cnc3[nH]cc(C(=O)N[C@@H](C(=O)N4CC(C#N)C4)C4CC4)c3n2)cn1-c1ccccc1 | 175 to 179
2 | CC(C)(C)[C@@H](NC(=O)c1c[nH]c2ncc(C3CC3)nc12)C(=O)N1CCCC1 [Example 1, 2-Cyclopropyl-5H-pyrrolo[2,3-b]pyrazine-7-carboxylic acid [(R)-2,2-dimethyl-1-(pyrrolidine-1-carbonyl)-propyl]-amide] | 201 to 203
3 | CCn1cc(-c2cnc3[nH]cc(C(=O)N[C@@H](C(=O)N4CCCC4)C4CC4)c3n2)cn1 [Example 4, 2-(1-Ethyl-1H-pyrazol-4-yl)-5H-pyrrolo[2,3-b]pyrazine-7-carboxylic acid ((R)-1-cyclopropyl-2-oxo-2-pyrrolidin-1-yl-ethyl)-amide] | 210 to 212
4 | CC(C)(C)[C@@H](NC(=O)c1c[nH]c2ncc(C3CC3)nc12)C(=O)N1CCC(C#N)CC1 [Example 11, 2-Cyclopropyl-5H-pyrrolo[2,3-b]pyrazine-7-carboxylic acid [(R)-1-(4-cyano-piperidine-1-carbonyl)-2,2-dimethyl-propyl]-amide] | 249 to 251
5 | CC[C@@H](NC(=O)c1c[nH]c2ncc(C3CC3)nc12)C(=O)N1CCCC1 [Example 23, 2-Cyclopropyl-5H-pyrrolo[2,3-b]pyrazine-7-carboxylic acid [(R)-1-(pyrrolidine-1-carbonyl)-propyl]-amide] | 240.9 to 242.5
6 | CC(C)[C@@H](NC(=O)c1c[nH]c2ncc(C3CC3)nc12)C(=O)N1CCCC1 [Example 24, 2-Cyclopropyl-5H-pyrrolo[2,3-b]pyrazine-7-carboxylic acid [(R)-2-methyl-1-(pyrrolidine-1-carbonyl)-propyl]-amide] | 171 to 172.1
7 | O=C(N[C@@H](C(=O)N1CCCC1)C1CC1)c1c[nH]c2ncc(C3CC3)nc12 [Example 25, 2-Cyclopropyl-5H-pyrrolo[2,3-b]pyrazine-7-carboxylic acid ((R)-1-cyclopropyl-2-oxo-2-pyrrolidin-1-yl-ethyl)-amide] | 254 to 256
8 | CC(C)[C@@H](NC(=O)c1c[nH]c2ncc(C3CC3)nc12)C(=O)N1CCCCC1 [Example 26, 2-Cyclopropyl-5H-pyrrolo[2,3-b]pyrazine-7-carboxylic acid [(R)-2-methyl-1-(piperidine-1-carbonyl)-propyl]-amide] | 183 to 185
9 | CC(C)[C@@H](NC(=O)c1c[nH]c2ncc(C3CC3)nc12)C(=O)N1CCOCC1 [Example 27, 2-Cyclopropyl-5H-pyrrolo[2,3-b]pyrazine-7-carboxylic acid [(R)-2-methyl-1-(morpholine-4-carbonyl)-propyl]-amide] | 154 to 156
10 | Cc1nc(-c2cnc3[nH]cc(C(=O)N[C@@H](C(=O)N4CC(C#N)C4)C(C)(C)C)c3n2)cn1-c1cc(F)cc(F)c1 [Example 136, 2-[1-(3,5-Difluoro-phenyl)-2-methyl-1H-imidazol-4-yl]-5H-pyrrolo[2,3-b]pyrazine-7-carboxylic acid [(R)-1-(3-cyano-azetidine-1-carbonyl)-2,2-dimethyl-propyl]-amide] | 187 to 190
11 | Cc1nc(-c2cnc3[nH]cc(C(=O)N[C@@H](C(=O)N4CC(C#N)C4)C(C)(C)C)c3n2)cn1-c1cccc(F)c1 [Example 137, 2-[1-(3-Fluorophenyl)-2-methyl-1H-imidazol-4-yl]-5H-pyrrolo[2,3-b]pyrazine-7-carboxylic acid [(R)-1-(3-cyano-azetidine-1-carbonyl)-2,2-dimethyl-propyl]-amide] | 171 to 176
12 | N#CC1CN(C(=O)[C@H](NC(=O)c2c[nH]c3ncc(-c4ccc(C(F)(F)F)cc4)nc23)C2CC2)C1 [Example 142, 2-(4-Trifluoromethyl-phenyl)-5H-pyrrolo[2,3-b]pyrazine-7-carboxylic acid [(R)-2-(3-cyano-azetidin-1-yl)-1-cyclopropyl-2-oxo-ethyl]-amide] | 207 to 209

The remaining lines, values ahead:

Row | melting point [°C] | Compound
13 | 185 to 188 | CC(=O)N1CCN(c2ccc(-c3cnc4[nH]cc(C(=O)N[C@@H](C(=O)N5CC(C#N)C5)C5CC5)c4n3)cc2)CC1 [Example 143, 2-[4-(4-Acetyl-piperazin-1-yl)-phenyl]-5H-pyrrolo[2,3-b]pyrazine-7-carboxylic acid [(R)-2-(3-cyano-azetidin-1-yl)-1-cyclopropyl-2-oxo-ethyl]-amide]
14 | 178 to 185 | CN1CCN(c2ccc(-c3cnc4[nH]cc(C(=O)N[C@@H](C(=O)N5CC(C#N)C5)C5CC5)c4n3)cc2)CC1 [Example 144, 2-[4-(4-Methyl-piperazin-1-yl)-phenyl]-5H-pyrrolo[2,3-b]pyrazine-7-carboxylic acid [(R)-2-(3-cyano-azetidin-1-yl)-1-cyclopropyl-2-oxo-ethyl]-amide]
15 | 186 to 192 | N#CC1CN(C(=O)[C@H](NC(=O)c2c[nH]c3ncc(-c4ccc(N5CCOCC5)cc4)nc23)C2CC2)C1 [Example 145, 2-(4-Morpholin-4-yl-phenyl)-5H-pyrrolo[2,3-b]pyrazine-7-carboxylic acid [(R)-2-(3-cyano-azetidin-1-yl)-1-cyclopropyl-2-oxo-ethyl]-amide]
16 | 175 to 180 | CN(C)c1ccc(-c2cnc3[nH]cc(C(=O)N[C@@H](C(=O)N4CC(C#N)C4)C4CC4)c3n2)cc1 [Example 146, 2-(4-Dimethylamino-phenyl)-5H-pyrrolo[2,3-b]pyrazine-7-carboxylic acid [(R)-2-(3-cyano-azetidin-1-yl)-1-cyclopropyl-2-oxo-ethyl]-amide]
17 | 200 to 202 | N#CC1CN(C(=O)[C@H](NC(=O)c2c[nH]c3ncc(-c4ccccc4)nc23)C2CC2)C1 [Example 147, 2-Phenyl-5H-pyrrolo[2,3-b]pyrazine-7-carboxylic acid [(R)-2-(3-cyano-azetidin-1-yl)-1-cyclopropyl-2-oxo-ethyl]-amide]
18 | 228 to 230 | CCn1cc(-c2cnc3[nH]cc(C(=O)N[C@@H](C(=O)N4CCC(C)(C#N)C4)C(C)(C)C)c3n2)cn1 (stereo partly drawn) [Example I-28, 2-(1-Ethyl-1H-pyrazol-4-yl)-5H-pyrrolo[2,3-b]pyrazine-7-carboxylic acid [(R)-1-(3-cyano-3-methyl-pyrrolidine-1-carbonyl)-2,2-dimethyl-propyl]-amide]
19 | 218 to 220 | CCn1cc(-c2cnc3[nH]cc(C(=O)N[C@@H](C(=O)N4CCCC4)C4(C)CC4)c3n2)cn1 [Example I-34, 2-(1-Ethyl-1H-pyrazol-4-yl)-5H-pyrrolo[2,3-b]pyrazine-7-carboxylic acid [(R)-1-(1-methyl-cyclopropyl)-2-oxo-2-pyrrolidin-1-yl-ethyl]-amide]
20 | 255 to 256 | Cc1nc(-c2cnc3[nH]cc(C(=O)N[C@@H](C(=O)N4CC(C#N)C4)C4CC4)c3n2)cn1CC(F)(F)F [Example I-165, 2-[2-Methyl-1-(2,2,2-trifluoro-ethyl)-1H-imidazol-4-yl]-5H-pyrrolo[2,3-b]pyrazine-7-carboxylic acid [(R)-2-(3-cyano-azetidin-1-yl)-1-cyclopropyl-2-oxo-ethyl]-amide]

biological target: T1, h-jak3(810-1124) (JAK3: Recombinant human kinase domain) (Homo sapiens, UniProt P52333); assay: Determination of IC50 of Janus Kinase (JAK) inhibition: JAK3 radioactive end-point 33P-ATP kinase assay; type: biochemical; conditions: no additive; ATP 1.5 uM, peptide 50 uM, 20 minutes, room temperature; read-out: Ic50 h-jak3(810-1124)-sf9-c: no additive
T1 construct: jak3(810- 1124)-sf9-c; made in house; host or cells: Sf9
T1 sequence (P52333 810-1124): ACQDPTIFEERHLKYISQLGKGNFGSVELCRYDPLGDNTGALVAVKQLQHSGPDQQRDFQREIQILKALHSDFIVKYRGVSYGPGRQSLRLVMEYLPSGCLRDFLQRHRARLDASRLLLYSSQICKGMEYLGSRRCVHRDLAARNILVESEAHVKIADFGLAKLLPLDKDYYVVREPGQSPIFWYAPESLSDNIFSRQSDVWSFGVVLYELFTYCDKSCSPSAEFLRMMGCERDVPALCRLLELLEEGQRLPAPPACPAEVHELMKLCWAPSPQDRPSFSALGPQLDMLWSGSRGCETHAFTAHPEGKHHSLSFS

Row | Compound | IC50 [nM]
21 | CCn1cc(-c2cnc3[nH]cc(C(=O)N[C@@H](C(=O)N4CCC(C)(C#N)C4)C(C)(C)C)c3n2)cn1 (stereo partly drawn) [Example I-28, 2-(1-Ethyl-1H-pyrazol-4-yl)-5H-pyrrolo[2,3-b]pyrazine-7-carboxylic acid [(R)-1-(3-cyano-3-methyl-pyrrolidine-1-carbonyl)-2,2-dimethyl-propyl]-amide] | 0.51
22 | CCn1cc(-c2cnc3[nH]cc(C(=O)N[C@@H](C(=O)N4CCCC4)C4(C)CC4)c3n2)cn1 [Example I-34, 2-(1-Ethyl-1H-pyrazol-4-yl)-5H-pyrrolo[2,3-b]pyrazine-7-carboxylic acid [(R)-1-(1-methyl-cyclopropyl)-2-oxo-2-pyrrolidin-1-yl-ethyl]-amide] | 0.87
23 | CC(=O)N1CCN(c2ccc(-c3cnc4[nH]cc(C(=O)N[C@@H](C(=O)N5CC(C#N)C5)C5CC5)c4n3)cc2)CC1 [Example I-161, 2-[4-(4-Acetyl-piperazin-1-yl)-phenyl]-5H-pyrrolo[2,3-b]pyrazine-7-carboxylic acid [(R)-2-(3-cyano-azetidin-1-yl)-1-cyclopropyl-2-oxo-ethyl]-amide] | ≤ 0.32
24 | N#CC1CN(C(=O)[C@H](NC(=O)c2c[nH]c3ncc(-c4ccc(N5CCOCC5)cc4)nc23)C2CC2)C1 [Example I-163, 2-(4-Morpholin-4-yl-phenyl)-5H-pyrrolo[2,3-b]pyrazine-7-carboxylic acid [(R)-2-(3-cyano-azetidin-1-yl)-1-cyclopropyl-2-oxo-ethyl]-amide] | ≤ 0.32
25 | CN(C)c1ccc(-c2cnc3[nH]cc(C(=O)N[C@@H](C(=O)N4CC(C#N)C4)C4CC4)c3n2)cc1 [Example I-164, 2-(4-Dimethylamino-phenyl)-5H-pyrrolo[2,3-b]pyrazine-7-carboxylic acid [(R)-2-(3-cyano-azetidin-1-yl)-1-cyclopropyl-2-oxo-ethyl]-amide] | ≤ 0.32
26 | Cc1nc(-c2cnc3[nH]cc(C(=O)N[C@@H](C(=O)N4CC(C#N)C4)C4CC4)c3n2)cn1CC(F)(F)F [Example I-165, 2-[2-Methyl-1-(2,2,2-trifluoro-ethyl)-1H-imidazol-4-yl]-5H-pyrrolo[2,3-b]pyrazine-7-carboxylic acid [(R)-2-(3-cyano-azetidin-1-yl)-1-cyclopropyl-2-oxo-ethyl]-amide] | 0.68
27 | N#CC1CN(C(=O)[C@H](NC(=O)c2c[nH]c3ncc(-c4ccccc4)nc23)C2CC2)C1 [Example I-166, 2-Phenyl-5H-pyrrolo[2,3-b]pyrazine-7-carboxylic acid [(R)-2-(3-cyano-azetidin-1-yl)-1-cyclopropyl-2-oxo-ethyl]-amide] | ≤ 0.32
